According to patent US20060229264A1, “Crystalline 6-n-pyridylmethylaminoindolocarbazole compounds” (priority 2003, published 2006):

Columns and labels:
Type in all cases: physicochemical
[1] = Solid thermostability test (accelerated test at 80° C. in tightly closed vials); conditions: after 4 weeks
Experimental: A solid thermostability test of amorphous free bases and crystals of the compounds represented by the formula (II), the formula (III) and the formula (IV) is shown in Table 1. This test is an accelerated test conducted at 80° C. in tightly closed vials.

[2] = Solid light stability test (25° C., 2000 lux light source, tight-closed vials); conditions: after 4 weeks
Experimental: A solid light stability test of amorphous free bases and crystals of the compounds represented by the formula (II), the formula (III) and the formula (IV) is shown in Table 2. This test was carried out at 25° C. under the light source of 2000 luxes in tight-closed vials.

[3] = Test on solubility in water
Source text: Solubilities of crystals of intramolecular salts of the compounds of the formulae (II), (III) and (IV) and the corresponding amorphous free bases in water are shown below.

[4] = Hygroscopicity test (moisture sorption analyzer); conditions: for Changes in weight under dehumidifying condition (desorption) compared with humidifying condition: desorption versus adsorption of water, FIG. 3 / FIG. 4; for Weight change rate upon humidification: relative humidity changed from 30% to 75% (adsorption process of water)
Source text: Comparing the hygroscopicity of amorphous free base of the compound represented by the above formula (II) with that of crystals of hydrochloride of the same compound, the weight of the amorphous free base increased by 7.6% under the moisturized condition (adsorption process of water), while the weight of the crystal increased as slightly as 1.5% in the case where the comparison was done changing the humidity from 30% to 75% which is the humidity for usual preservation. Thus, the weight change rate of the amorphous free base of the compound represented by the formula (II) upon humidification (relative humidity changes from 30% to 75%) was 7.6%. On the other hand, the weight change rate of the crystals of hydrochloride of the compound represented by the formula (II) upon humidification (relative humidity changes from 30% to 75%) was 1.5%, therefore, the influence by humidification was very little.
Hygroscopicity test was conducted by IGAsorp Moisture Sorption Analyzer, manufacture by Hiden Analytical Limited (refer to FIG. 3).

Row | Residual Rate (thermostability of solid) [1] | Residual Rate (light stability of solid) [2] | solubility [3] | Changes in weight under dehumidifying condition (desorption) compared with humidifying condition [4] | Weight change rate upon humidification [4] | Solubility in water ([3]; listed as Amorphous free base of the compound represented by the formula (II)) | SMILES
1 | 98.4% | 95.8% | 10000 to 50000 µg/mL | nearly the same | 0.6% |  | Cl.O=C1c2c(c3c4ccc(O)cc4n(C4OC(CO)C(O)C(O)C4O)c3c3[nH]c4cc(O)ccc4c23)C(=O)N1NCc1ccncc1 (centres unmarked)
2 | 82.9% | 84.6% |  | significantly different | 2.8% |  | O=C1c2c(c3c4ccc(O)cc4n(C4OC(CO)C(O)C(O)C4O)c3c3[nH]c4cc(O)ccc4c23)C(=O)N1NCc1ccncc1 (centres unmarked) [Amorphous free base of the compound of the formula (IV)]
3 |  | 95.6% |  |  |  |  | O=C1c2c(c3c4ccc(O)cc4n(C4OC(CO)C(O)C(O)C4O)c3c3[nH]c4cc(O)ccc4c23)C(=O)N1NCc1ccncc1CO (centres unmarked) [Crystals of free base of the compound of the formula (II)]

The next lines start with the compound.

Row | SMILES | Residual Rate (thermostability of solid) [1] | Residual Rate (light stability of solid) [2] | solubility [3] | Changes in weight under dehumidifying condition (desorption) compared with humidifying condition [4] | Weight change rate upon humidification [4] | Solubility in water ([3]; listed as Amorphous free base of the compound represented by the formula (II))
4 | O=C1c2c(c3c4ccc(O)cc4n(C4OC(CO)C(O)C(O)C4O)c3c3[nH]c4cc(O)ccc4c23)C(=O)N1NCc1cccc(CO)n1 (centres unmarked) | 66.6% | 78.9% | ≤ 1 µg/mL |  |  | 
5 | O=C1c2c(c3c4ccc(O)cc4n(C4OC(CO)C(O)C(O)C4O)c3c3[nH]c4cc(O)ccc4c23)C(=O)N1NCc1ccncc1 (centres unmarked) |  |  | ≤ 1 µg/mL |  |  | 
6 | Cl.O=C1c2c(c3c4ccc(O)cc4n(C4OC(CO)C(O)C(O)C4O)c3c3[nH]c4cc(O)ccc4c23)C(=O)N1NCc1ccncc1CO (centres unmarked) |  | 94.3% | 10000 to 50000 µg/mL | nearly the same | 1.5% | 
7 | O=C1c2c(c3c4ccc(O)cc4n(C4OC(CO)C(O)C(O)C4O)c3c3[nH]c4cc(O)ccc4c23)C(=O)N1NCc1ccncc1CO (centres unmarked) [Amorphous free base of the compound of the formula (II)] | 87.8% | 89.5% |  | greatly different | 7.6% | not more than 0.001 mg/mL
8 | O=C1c2c(c3c4ccc(O)cc4n(C4OC(CO)C(O)C(O)C4O)c3c3[nH]c4cc(O)ccc4c23)C(=O)N1NCc1ccncc1 (centres unmarked) [Crystals of free base of the compound of the formula (IV)] | 99.7% | 99.5% |  |  |  | 
9 | O=C1c2c(c3c4ccc(O)cc4n(C4OC(CO)C(O)C(O)C4O)c3c3[nH]c4cc(O)ccc4c23)C(=O)N1NCc1ccncc1CO (centres unmarked) [Crystals of methanesulfonate of the compound of the formula ] | 99.1% |  |  |  |  | 
